In patent publication US20120220577A1, “GLYCINE B ANTAGONISTS” (Merz Pharma GmbH & Co KgaA, priority 2009, published 2012):

molecular target: T1, glycine binding pocket of the NMDA receptor (Rattus norvegicus, UniProt P35439); assay: [3H]MDL-105,519 displacement studies (rat cortical membranes); details: displacement of 2 nM [3H]-MDL-105,519, rat cortical membranes; read-out: NMDA-MDL 105519-r-CTX - IC50
T1 construct: For isolation of the cell membranes, the cortices are homogenized; from tissue; host or cells: rat cerebral cortex membranes (male Sprague-Dawley)
Method: Anaesthetised male Sprague-Dawley rats (200-250 g, Janvier, Le Genest-Isle, France) are decapitated and their brains removed rapidly. […] For isolation of the cell membranes, the cortices are homogenized in 20 volumes of ice-cold 0.32 M sucrose (Sigma-Aldrich, Taufkirchen, Germany) using a glass-Teflon homogenizer. The homogenate is centrifuged at 1000×g for 10 minutes, the pellet is discarded and the supernatant centrifuged at 20,000×g for 20 minutes. The resulting pellet is re-suspended in 20 volumes of distilled water and centrifuged for 20 minutes at 8000×g. The supernatant and the buffy coat are then centrifuged three times (48,000×g for 20 minutes) in the presence of 50 mM Tris-HCl, pH 8.0 (assay buffer). All centrifugation steps are carried out at 4° C. After resuspension in 5 volumes of 50 mM Tris-HCl, pH 7.5, the membrane suspension is frozen rapidly at −80° C. On the day of assay, the membranes are thawed and washed four times by resuspension in 50 mM Tris-HCl, pH 7.5, and centrifugation at 48,000×g for 20 minutes. The final pellet is suspended in assay buffer. […] The final protein concentration used for our studies is 400 μg/ml.
A robotic system designed for binding assays (Tecan Deutschland GmbH, Crailsheim, Germany) is loaded with the membrane solution, solutions for bound control (buffer/DMSO 20%), unlabeled glycine (1 mM) for evaluation of non-specific binding, all compounds to be tested (at 20-fold concentrations), radioligand and respective 96-well plates.
The protein/receptor concentration is held constant whereas the amount of specific bound radioligand is determined using increasing concentrations of ligand.
Firstly, the assay plates are loaded with membrane solution and are shaken at 4° C. The mother plates are then prepared by pipetting the compounds into assay buffer/20% DMSO to obtain the desired final concentrations (dose response curve with five different concentrations, e.g. 10, 3, 1, 0.3, and 0.1 μM). After transferring radioligand into the assay plates, the compounds are added (including the bound and the non-specific binding control). The final DMSO concentration is 1%. The assay plates are incubated and shaken at 4° C. for 1 h, before the mixture is exhausted as rapidly as possible via a vacuum manifold using the Multiscreen HTS glass fibre (type B) filter plates (Millipore, Schwalbach, Germany) under a constant vacuum of 450 mbar. The membranes are washed four times with cold assay buffer ([…]). 50 μL of Ultima Gold scintillation cocktail (PerkinElmer, Rodgau-Jügesheim, Germany) is added to the wet filter plates and incubated at room temperature overnight before counting the disintegration per minutes using a liquid scintillation counter (MicroBeta, PerkinElmer, Rodgau-Jügesheim, Germany).
The residual radioactivity after displacement of the test compound (n=5) is then corrected with respect to the set controls.

Row | IC50 [nM] | SMILES
1 | 935 | O=C(COc1cc(C(=O)O)cc2cc(Cl)cc(Cl)c12)N[C@@H]1C[C@H]1c1ccccc1 (relative stereo) [Example 66, 5,7-Dichloro-4-[(trans-2-phenyl-cyclopropylcarbamoyl)-methoxy]-naphthalene-2-carboxylic acid]
2 | 404 | O=C(COc1cc(C(=O)O)cc2cc(Cl)cc(Cl)c12)Nc1ccc(CO)cc1 [Example 9, 5,7-Dichloro-4-[(4-hydroxymethyl-phenylcarbamoyl)-methoxy]-naphthalene-2-carboxylic acid]
3 | 351 | O=C(COc1cc(C(=O)O)cc2cc(Cl)cc(Cl)c12)Nc1cccc(CO)c1 [Example 10, 5,7-Dichloro-4-[(3-hydroxymethylphenylcarbamoyl)-methoxy]-naphthalene-2-carboxylic acid]
4 | 983 | O=C(COc1cc(C(=O)O)cc2cc(Cl)cc(Cl)c12)N[C@@H](CO)c1ccccc1 [Example 29]
5 | 769 | O=C(COc1cc(C(=O)O)cc2cc(Cl)cc(Cl)c12)Nc1ccccc1 [Example 33, 5,7-Dichloro-4-phenylcarbamoylmethoxynaphthalene-2-carboxylic acid]
6 | 4780 | O=C(O)CC(Cc1ccccc1)NC(=O)COc1cc(C(=O)O)cc2cc(Cl)cc(Cl)c12 (stereo not drawn) [Example 37, 4-[(1-Carboxymethyl-2-phenylethylcarbamoyl)-methoxy]-5,7-dichloronaphthalene-2-carboxylic acid]
7 | 4270 | COC(=O)c1ccccc1NC(=O)COc1cc(C(=O)O)cc2cc(Cl)cc(Cl)c12 [Example 45, 5,7-Dichloro-4-[(2-methoxycarbonyl-phenylcarbamoyl)-methoxy]-naphthalene-2-carboxylic acid]
8 | 1560 | O=C(COc1cc(C(=O)O)cc2cc(Cl)cc(Cl)c12)NCc1ccccc1OC(F)(F)F [Example 61, 5,7-Dichloro-4-[(2-trifluoromethoxy-benzylcarbamoyl)-methoxy]-naphthalene-2-carboxylic acid]
9 | 1220 | COc1cccc(CO)c1NC(=O)COc1cc(C(=O)O)cc2cc(Cl)cc(Cl)c12 [Example 76, 5,7-Dichloro-4-[(2-hydroxymethyl-6-methoxy-phenylcarbamoyl)-methoxy]-naphthalene-2-carboxylic acid]

The remaining lines, values behind:

Row | SMILES | IC50 [nM]
10 | COc1ccc(C(=O)COc2cc(C(=O)O)cc3cc(Cl)cc(Cl)c23)cc1 [Example 4, 5,7-Dichloro-4-[2-(4-methoxyphenyl)-2-oxo-ethoxy]-naphthalene-2-carboxylic acid] | 6740
11 | COc1cccc(NC(=O)COc2cc(C(=O)O)cc3cc(Cl)cc(Cl)c23)c1 [Example 6, 5,7-Dichloro-4-[(3-methoxyphenylcarbamoyl)-methoxy]-naphthalene-2-carboxylic acid] | 1790
12 | O=C(O)c1cc(OCC(=O)N2CCCC2C(=O)O)c2c(Cl)cc(Cl)cc2c1 (stereo not drawn) [Example 35, 1-[2-(3-Carboxy-6,8-dichloronaphthalen-1-yloxy)-acetyl]-pyrrolidine-2-carboxylic acid] | 1420
13 | CN(C(=O)COc1cc(C(=O)O)cc2cc(Cl)cc(Cl)c12)c1cccc(CC(=O)O)c1 [Example 40, 4-{[(3-Carboxymethylphenyl)-methyl-carbamoyl]-methoxy}-5,7-dichloronaphthalene-2-carboxylic acid] | 3580
14 | O=C(O)c1cc(OCC(=O)N2CC(C(=O)O)Oc3ccccc32)c2c(Cl)cc(Cl)cc2c1 (stereo not drawn) [Example 43, 4-[2-(3-Carboxy-6,8-dichloronaphthalen-1-yloxy)-acetyl]-3,4-dihydro-2H-benzo[1,4]oxazine-2-carboxylic acid] | 3070
15 | O=C(O)COc1ccc(NC(=O)COc2cc(C(=O)O)cc3cc(Cl)cc(Cl)c23)cc1 [Example 44, 4-[(4-Carboxymethoxy-phenylcarbamoyl)-methoxy]-5,7-dichloro-naphthalene-2-carboxylic acid] | 3390
16 | CN(C)CCOc1ccc(NC(=O)COc2cc(C(=O)O)cc3cc(Cl)cc(Cl)c23)cc1CO [Example 87, 5,7-Dichloro-4-{[4-(2-dimethylamino-ethoxy)-3-hydroxymethyl-phenylcarbamoyl]-methoxy}-naphthalene-2-carboxylic acid] | 324
17 | O=C(COc1cc(C(=O)O)cc2cc(Cl)cc(Cl)c12)Nc1ccc(-c2nnn[nH]2)cc1 [Example 89, 5,7-Dichloro-4-{[4-(1H-tetrazol-5-yl)-phenylcarbamoyl]-methoxy}-naphthalene-2-carboxylic acid] | 1260
18 | NC(=O)COc1cccc(NC(=O)COc2cc(C(=O)O)cc3cc(Cl)cc(Cl)c23)c1 [Example 93, 4-[(3-Carbamoylmethoxy-phenylcarbamoyl)-methoxy]-5,7-dichloro-naphthalene-2-carboxylic acid] | 520
19 | N#Cc1cccc(NC(=O)COc2cc(C(=O)O)cc3cc(Cl)cc(Cl)c23)c1 [Example 98, 5,7-Dichloro-4-[(3-cyano-phenylcarbamoyl)-methoxy]-naphthalene-2-carboxylic acid] | 1120
20 | CN(C)C(=O)COc1ccccc1NC(=O)COc1cc(C(=O)O)cc2cc(Cl)cc(Cl)c12 [Example 102, 5,7-Dichloro-4-[(2-dimethylcarbamoylmethoxy-phenylcarbamoyl)-methoxy]-naphthalene-2-carboxylic acid] | 134
21 | CN(C)CCNC(=O)COc1ccccc1NC(=O)COc1cc(C(=O)O)cc2cc(Cl)cc(Cl)c12 [Example 109, 5,7-Dichloro-4-({2-[(2-dimethylamino-ethylcarbamoyl)-methoxy]-phenylcarbamoyl}-methoxy)-naphthalene-2-carboxylic acid] | 650
22 | CN(C)CCN(C)C(=O)COc1ccccc1NC(=O)COc1cc(C(=O)O)cc2cc(Cl)cc(Cl)c12 [Example 110, 5,7-Dichloro-4-[(2-{[(2-dimethylamino-ethyl)-methyl-carbamoyl]-methoxy}-phenylcarbamoyl)-methoxy]-napthalene-2-carboxylic acid] | 1310
23 | CNCc1ccc(NC(=O)COc2cc(C(=O)O)cc3cc(Cl)cc(Cl)c23)c(OCC(=O)O)c1 [Example 111, 4-[(2-Carboxymethoxy-4-methylaminomethyl-phenylcarbamoyl)-methoxy]-5,7-dichloro-naphthalene-2-carboxylic acid] | 24
24 | N#CCc1ccc(NC(=O)COc2cc(C(=O)O)cc3cc(Cl)cc(Cl)c23)cc1 [Example 112, 5,7-Dichloro-4-[(4-cyanomethyl-phenylcarbamoyl)-methoxy]-naphthalene-2-carboxylic acid] | 637
25 | O=C(COc1cc(C(=O)O)cc2cc(Cl)cc(Cl)c12)Nc1cccc2cc(C(=O)O)oc12 [Example 115, 7-[2-(3-Carboxy-6,8-dichloro-naphthalen-1-yloxy)-acetylamino]-benzofuran-2-carboxylic acid] | 7
26 | CNC(=O)COc1cc(CN)ccc1NC(=O)COc1cc(C(=O)O)cc2cc(Cl)cc(Cl)c12 [Example 116, 4-[(4-Aminomethyl-2-methylcarbamoylmethoxy-phenylcarbamoyl)-methoxy]-5,7-dichloro-naphthalene-2-carboxylic acid] | 297
27 | N#Cc1ccc(CNC(=O)COc2cc(C(=O)O)cc3cc(Cl)cc(Cl)c23)cc1 [Example 117, 5,7-Dichloro-4-[(4-cyano-benzylcarbamoyl)-methoxy]-naphthalene-2-carboxylic acid] | 1940
28 | CN(C)C(=O)COc1cc(CN)ccc1NC(=O)COc1cc(C(=O)O)cc2cc(Cl)cc(Cl)c12 [Example 123, 4-[(4-Aminomethyl-2-dimethylcarbamoylmethoxy-phenylcarbamoyl)-methoxy]-5,7-dichloronaphthalene-2-carboxylic acid] | 113
29 | O=C(COc1cc(C(=O)O)cc2cc(Cl)cc(Cl)c12)Nc1cccc(CO)c1OCCO [Example 124, 5,7-Dichloro-4-{[2-(2-hydroxy-ethoxy)-3-hydroxymethyl-phenylcarbamoyl]-methoxy}-naphthalene-2-carboxylic acid] | 428
30 | O=C(COc1cc(C(=O)O)cc2cc(Cl)cc(Cl)c12)NCc1ccccc1OCc1nnn[nH]1 [Example 125, 5,7-Dichloro-4-{[2-(1H-tetrazol-5-ylmethoxy)-benzylcarbamoyl]-methoxy}-naphthalene-2-carboxylic acid] | 254
